Literature values in patent US20050014827A1, “Synergistic medicament containing flavoring agents and having an antagonistic regenerative and/or protagonist decontamination effect” (priority 2000, published 2005).

Key:
[1] = tested on: reverse transcriptase; conditions: 19% ethanol
[2] = tested on: HTLV-III/LAV/HIV; conditions: 50% ethanol; 23° C.; 10 min; with and without additional protein loading
[3] = tested on: HBV; conditions: 70% isopropyl alcohol; 10 min; room temperature; serum dried onto plastic surface

Row | Structure (SMILES) | detection of viral reverse transcriptase [1] | infectiousness of the virus [2] | inactivation of 10^6 HBV doses infectious towards chimpanzees [3]
1 | CCO [ethanol] | can no longer be detected | destroys the infectiousness | 
2 | CC(C)O [isopropyl alcohol] |  |  | inactivated
